Results on 1 compound are retold here after patent US10314771B2, “Methods and compositions for preventing and treating tooth erosion” (University of Tennessee Research Foundation, priority 2013, dated 2019).

How the values of this data set were obtained: The capacity of sodium bicarbonate to neutralize acid saliva was assessed. A pool of saliva was collected from 5 individuals, and the normal pH of the saliva was measured before brushing or eating. […] In order to simulate an acidic challenge, the pH of the saliva was adjusted to 2.5 with 0.01M HCl.
The saliva was titrated with a 3M sodium bicarbonate solution and measured the volume of solution necessary to neutralize the saliva to a pH of 6.8.

As for `O=C([O-])O.[Na+]` [Sodium Bicarbonate, sodium bicarbonate], the “volume needed to neutralize the acidic saliva to a pH of 7.0” value (3M solution) came out at 2.0 mLs. For the same compound, the “rinsing time sufficient to help neutralize the saliva” value (rinsing with a sodium bicarbonate solution) was 30 s.
